From ChEMBL document CHEMBL4196079, “Molecular interaction of novel benzothiazolyl triazolium analogues with calf thymus DNA and HSA-their biological investigation as potent antimicrobial agents” (Eur J Med Chem, 2018)
Values after ≈ are worked out from the molar mass of the structure shown.

Assays:
[1] = test system: Escherichia coli; experiment: Antibacterial activity against Escherichia coli JM109 after 24 hrs by NCCLS micro broth dilution method; assay type: functional; details: JM109, 24 h
[2] = test system: Staphylococcus aureus; experiment: Antibacterial activity against Staphylococcus aureus ATCC 25923 after 24 hrs by NCCLS micro broth dilution method; assay type: functional; details: ATCC 25923, 24 h
[3] = test system: Cyberlindnera jadinii; experiment: Antifungal activity against Candida utilis after 24 hrs by NCCLS micro broth dilution method; assay type: functional; details: Williopsis jadinii
[4] = test system: Micrococcus luteus; experiment: Antibacterial activity against Micrococcus luteus ATCC 4698 after 24 hrs by micro broth dilution method; assay type: functional; details: ATCC 4698, 24 h
[5] = test system: Shigella dysenteriae; experiment: Antibacterial activity against Shigella dysenteriae after 24 hrs by NCCLS micro broth dilution method; assay type: functional
[6] = test system: Pseudomonas aeruginosa; experiment: Antibacterial activity against Pseudomonas aeruginosa ATCC 27853 after 24 hrs by NCCLS micro broth dilution method; assay type: functional; details: ATCC 27853, 24 h
[7] = test system: Bacillus; experiment: Antibacterial activity against Bacillus proteus ATCC 13315 after 24 hrs by NCCLS micro broth dilution method; assay type: functional; details: ATCC 13315, 24 h
[8] = test system: Saccharomyces cerevisiae; experiment: Potency index, ratio of fluconazole MIC to compound MIC for antifungal activity against Saccharomyces cerevisiae; assay type: functional
[9] = test system: Bacillus subtilis; experiment: Antibacterial activity against Bacillus subtilis ATCC 21216 after 24 hrs by NCCLS micro broth dilution method; assay type: functional; details: ATCC 21216, 24 h
[10] = test system: Aspergillus flavus; experiment: Antifungal activity against Aspergillus flavus after 24 hrs by NCCLS micro broth dilution method; assay type: functional
[11] = test system: Candida albicans; experiment: Antifungal activity against Candida albicans ATCC 76615 after 24 hrs by NCCLS micro broth dilution method; assay type: functional; details: ATCC 76615, 24 h
[12] = test system: Saccharomyces cerevisiae; experiment: Antifungal activity against Saccharomyces cerevisiae after 24 hrs by NCCLS micro broth dilution method; assay type: functional
[13] = test system: Pichia norvegensis; experiment: Antifungal activity against Candida mycoderma after 24 hrs by NCCLS micro broth dilution method; assay type: functional
[14] = test system: Staphylococcus aureus; experiment: Antibacterial activity against methicillin-resistant Staphylococcus aureus N315 after 24 hrs by NCCLS micro broth dilution method; assay type: functional; details: N315, 24 h
[15] = test system: Escherichia coli; experiment: Antibacterial activity against Escherichia coli DH52 after 24 hrs by NCCLS micro broth dilution method; assay type: functional; details: DH52, 24 h
[16] = test system: Salmonella typhi; experiment: Antibacterial activity against Salmonella typhi after 24 hrs by NCCLS micro broth dilution method; assay type: functional, Salmonella enterica subsp. enterica serovar Typhi; details: Salmonella enterica

Row | SMILES | MIC [1] [µg/mL] | MIC [2] [µg/mL] | MIC [3] [µg/mL] | MIC [4] [µg/mL] | MIC [5] [µg/mL] | MIC [6] [µg/mL] | MIC [7] [µg/mL] | Ratio [8] | MIC [9] [µg/mL] | MIC [10] [µg/mL] | MIC [11] [µg/mL] | MIC [12] [µg/mL] | MIC [13] [µg/mL] | MIC [14] [µg/mL] | MIC [15] [µg/mL] | MIC [16] [µg/mL]
1 | CCCCCCn1cc(COCc2c(-c3ccccc3)nc3sc4ccccc4n23)nn1 | 32 (≈ 71.8 µM) | 8 (≈ 18 µM) | 4 (≈ 8.98 µM) | 2 (≈ 4.49 µM) | 2 (≈ 4.49 µM) | 16 (≈ 35.9 µM) | 8 (≈ 18 µM) | 2 | 16 (≈ 35.9 µM) | 32 (≈ 71.8 µM) | 8 (≈ 18 µM) | 8 (≈ 18 µM) | 32 (≈ 71.8 µM) | 16 (≈ 35.9 µM) | 32 (≈ 71.8 µM) | 16 (≈ 35.9 µM)
2 | CCOc1ccc2c(c1)sc1nc(-c3ccccc3)c(COCc3cn(Cc4cccc(Cl)c4)nn3)n12 | 128 (≈ 241 µM) | 128 (≈ 241 µM) | 32 (≈ 60.4 µM) | 128 (≈ 241 µM) | 64 (≈ 121 µM) | 64 (≈ 121 µM) | 512 (≈ 966 µM) | – | 64 (≈ 121 µM) | 128 (≈ 241 µM) | 32 (≈ 60.4 µM) | 64 (≈ 121 µM) | 32 (≈ 60.4 µM) | 128 (≈ 241 µM) | 64 (≈ 121 µM) | 16 (≈ 30.2 µM)
3 | CCOc1ccc2c(c1)sc1nc(-c3ccccc3)c(COCc3cn(Cc4ccccc4Cl)nn3)n12 | 128 (≈ 241 µM) | 64 (≈ 121 µM) | 32 (≈ 60.4 µM) | 128 (≈ 241 µM) | 128 (≈ 241 µM) | 64 (≈ 121 µM) | 512 (≈ 966 µM) | – | 128 (≈ 241 µM) | 128 (≈ 241 µM) | 8 (≈ 15.1 µM) | 64 (≈ 121 µM) | 32 (≈ 60.4 µM) | 128 (≈ 241 µM) | 128 (≈ 241 µM) | 16 (≈ 30.2 µM)
4 | CCOc1ccc2c(c1)sc1nc(-c3ccccc3)c(COCc3cn(Cc4ccccc4F)nn3)n12 | 128 (≈ 249 µM) | 128 (≈ 249 µM) | 16 (≈ 31.2 µM) | 128 (≈ 249 µM) | 64 (≈ 125 µM) | 128 (≈ 249 µM) | 64 (≈ 125 µM) | – | 256 (≈ 498 µM) | 128 (≈ 249 µM) | 32 (≈ 62.3 µM) | 64 (≈ 125 µM) | 32 (≈ 62.3 µM) | 128 (≈ 249 µM) | 128 (≈ 249 µM) | 128 (≈ 249 µM)
5 | Clc1ccccc1Cn1cc(COCc2c(-c3ccccc3)nc3sc4ccccc4n23)nn1 | 8 (≈ 16.5 µM) | 64 (≈ 132 µM) | 64 (≈ 132 µM) | 128 (≈ 263 µM) | 64 (≈ 132 µM) | 128 (≈ 263 µM) | 64 (≈ 132 µM) | – | 128 (≈ 263 µM) | 128 (≈ 263 µM) | 16 (≈ 32.9 µM) | 64 (≈ 132 µM) | 8 (≈ 16.5 µM) | 64 (≈ 132 µM) | 128 (≈ 263 µM) | 64 (≈ 132 µM)
6 | CCCCCCCn1cc(COCc2c(-c3ccccc3)nc3sc4cc(OCC)ccc4n23)nn1 | 64 (≈ 127 µM) | 128 (≈ 254 µM) | 64 (≈ 127 µM) | 128 (≈ 254 µM) | 128 (≈ 254 µM) | 128 (≈ 254 µM) | 128 (≈ 254 µM) | – | 128 (≈ 254 µM) | 128 (≈ 254 µM) | 32 (≈ 63.5 µM) | 64 (≈ 127 µM) | 32 (≈ 63.5 µM) | 64 (≈ 127 µM) | 128 (≈ 254 µM) | 128 (≈ 254 µM)
7 | CCCCCn1cc(COCc2c(-c3ccccc3)nc3sc4cc(OCC)ccc4n23)nn1 | 128 (≈ 269 µM) | 128 (≈ 269 µM) | 1 (≈ 2.1 µM) | 128 (≈ 269 µM) | 128 (≈ 269 µM) | 128 (≈ 269 µM) | 64 (≈ 135 µM) | 2 | 64 (≈ 135 µM) | 32 (≈ 67.3 µM) | 8 (≈ 16.8 µM) | 8 (≈ 16.8 µM) | 4 (≈ 8.41 µM) | 32 (≈ 67.3 µM) | 128 (≈ 269 µM) | 128 (≈ 269 µM)
8 | Fc1ccc(Cn2cc(COCc3c(-c4ccccc4)nc4sc5ccccc5n34)nn2)cc1 | 128 (≈ 273 µM) | 128 (≈ 273 µM) | 16 (≈ 34.1 µM) | 128 (≈ 273 µM) | 128 (≈ 273 µM) | 128 (≈ 273 µM) | 128 (≈ 273 µM) | – | 128 (≈ 273 µM) | 256 (≈ 545 µM) | 32 (≈ 68.2 µM) | 64 (≈ 136 µM) | 32 (≈ 68.2 µM) | 64 (≈ 136 µM) | 128 (≈ 273 µM) | 128 (≈ 273 µM)
9 | Clc1ccc(Cn2cc(COCc3c(-c4ccccc4)nc4sc5ccccc5n34)nn2)cc1 | 128 (≈ 263 µM) | 64 (≈ 132 µM) | 64 (≈ 132 µM) | 64 (≈ 132 µM) | 128 (≈ 263 µM) | 128 (≈ 263 µM) | 64 (≈ 132 µM) | – | 128 (≈ 263 µM) | 256 (≈ 527 µM) | 32 (≈ 65.8 µM) | 16 (≈ 32.9 µM) | 32 (≈ 65.8 µM) | 64 (≈ 132 µM) | 64 (≈ 132 µM) | 64 (≈ 132 µM)
10 | CCOc1ccc2c(c1)sc1nc(-c3ccccc3)c(COCc3cn(Cc4ccc([N+](=O)[O-])cc4)nn3)n12 | 2 (≈ 3.7 µM) | 128 (≈ 237 µM) | 4 (≈ 7.4 µM) | 512 (≈ 947 µM) | 128 (≈ 237 µM) | 128 (≈ 237 µM) | 32 (≈ 59.2 µM) | – | 256 (≈ 474 µM) | 128 (≈ 237 µM) | 32 (≈ 59.2 µM) | 16 (≈ 29.6 µM) | 8 (≈ 14.8 µM) | 128 (≈ 237 µM) | 128 (≈ 237 µM) | 4 (≈ 7.4 µM)
11 | CCOc1ccc2c(c1)sc1nc(-c3ccccc3)c(COCc3cn(Cc4ccc(F)cc4)nn3)n12 | 64 (≈ 125 µM) | 128 (≈ 249 µM) | 16 (≈ 31.2 µM) | 128 (≈ 249 µM) | 16 (≈ 31.2 µM) | 64 (≈ 125 µM) | 64 (≈ 125 µM) | – | 64 (≈ 125 µM) | 64 (≈ 125 µM) | 8 (≈ 15.6 µM) | 32 (≈ 62.3 µM) | 8 (≈ 15.6 µM) | 128 (≈ 249 µM) | 32 (≈ 62.3 µM) | 32 (≈ 62.3 µM)
12 | CCOc1ccc2c(c1)sc1nc(-c3ccccc3)c(COCc3cn(Cc4ccc(Cl)cc4)nn3)n12 | 64 (≈ 121 µM) | 64 (≈ 121 µM) | 64 (≈ 121 µM) | 32 (≈ 60.4 µM) | 64 (≈ 121 µM) | 32 (≈ 60.4 µM) | 64 (≈ 121 µM) | – | 64 (≈ 121 µM) | 128 (≈ 241 µM) | 32 (≈ 60.4 µM) | 64 (≈ 121 µM) | 16 (≈ 30.2 µM) | 64 (≈ 121 µM) | 64 (≈ 121 µM) | 64 (≈ 121 µM)
